# Entries after “also recorded” stand apart in the source; their conditions may differ.
# What was measured:
# IRF-7 = assay: Western blot of IRF-7 in total cell lysates of RSV-infected A549 cells; type: cell-based, human; conditions: whole cell extracts, RSV 12 hours, 400 μM
# Experimental: (§1) Western Immunoblot. Total cell lysates and cytoplasmic and nuclear proteins were prepared as previously described, fractionated by SDS-PAGE and transferred to PVDF membrane (20). Membranes were blocked with 5% albumin in TBS-Tween and incubated overnight with a rabbit polyclonal antibody to IRF-1, -3 and -7 (Santa Cruz Biotech, Santa Cruz, Calif.). For secondary detection, a horseradish-coupled anti-rabbit or anti-mouse antibody was used in the enhanced chemiluminescence assay (Amersham Pharmacia Biotec, Arlington Heights, Ill.).
# IRF-3 = assay: Western blot of IRF-3 in total cell lysates of RSV-infected A549 cells; type: cell-based, human; conditions: whole cell extracts, RSV 12 hours, 400 μM
# Experimental: as §1
# RANTES = assay: RSV-induced RANTES secretion in SAE cells (ELISA); type: cell-based, human
# Experimental: Cell culture and infection of epithelial cells with RSV. A549, human alveolar type II-like epithelial cells (ATCC, Manassas, Va.), were maintained in F12K medium containing 10% (v/v) fetal bovine serum (FBS), 10 mM glutamine, 100 IU/ml penicillin and 100 μg/ml streptomycin. Small alveolar epithelial cells (SAE) were obtained from Clonetics (San Diego, Calif.) and grown according to the company instructions. Cell monolayers were infected with RSV at multiplicity of infection (MOI) of 1 (unless otherwise stated), as described (17). An equivalent amount of a 20% sucrose solution was added to uninfected A549 cells, as a control. For the antioxidant experiments, cells were pretreated with the antioxidants for one hour and then infected in the presence of the antioxidants. Since BHA was diluted in ethanol, equal amounts of ethanol were added to untreated cells, as a control. Total number of cells, cell viability and viral replication, following antioxidant treatment, were measured by trypan blue exclusion and by plaque assay, respectively. RANTES ELISA. Immunoreactive RANTES was quantitated by a double antibody ELISA kit (DuoSet, R&D Systems, Minneapolis, Minn.) following the manufacturer's protocol.
# β-actin = β-actin mRNA (Northern blot) in A549 cells; type: cell-based, human; conditions: 400 μM, compared to untreated cells
# Experimental: Northern Blot. Total RNA was extracted from control and infected A549 cells by the acid guanidium thiocyanate-phenol chloroform method (18). Twenty micrograms of RNA were fractionated on a 1.2% agarose-formaldehyde gel, transferred to nylon membranes and hybridized to a radiolabeled RANTES, IRF-1, -3 and -7 cDNAs, as previously described (19). Hybridization temperature for all probes was 55° C. After washing, membranes were exposed for autoradiography using Kodak XAR film at −70° C. using intensifying screens. After exposure, membranes were stripped and rehybridized with a β-actin probe.
# RANTES ISRE = assay: EMSA of RANTES ISRE binding complexes, nuclear extracts of RSV-infected A549 cells; type: cell-based, human; conditions: RSV 12 hours, 400 μM
# Experimental: Electrophoretic mobility shift assay (EMSA): Nuclear extracts of uninfected and infected A549 cells were prepared using hypotonic/nonionic detergent lysis, as previously described (20). Proteins were normalized by protein assay (Protein Reagent, Bio-Rad, Hercules, Calif.) and used to bind to a duplex oligonucleotide corresponding to the RANTES ISRE, whose sequences is shown below:
# DNA-binding reactions contained 10-15 μg nuclear proteins, 5% glycerol, 12 mM HEPES, 80 mM NaCl, 5 mM dithiothreitol (DTT), 5 mM Mg2Cl, 0.5 mM EDTA, 1 μg of poly dI-dC and 40,000 cpm of ^32P-labeled double-stranded oligonucleotide in a total volume of 20 μl. The nuclear proteins were incubated with the probe for 15 minutes at room temperature and then fractionated by 6% nondenaturing polyacrylamide gels (PAGE) in TBE buffer (22 mM Tris-HCl, 22 mM boric acid, 0.25 mM EDTA, pH 8). After electrophoretic separation, gels were dried and exposed for autoradiography using Kodak XAR film at −70° C. using intensifying screens.
# human RANTES promoter = assay: RANTES promoter luciferase reporter in RSV-infected A549 cells; type: cell-based; conditions: RSV 24 hours, 400 μM
# From the text: Plasmid construction and cell transfection. A fragment of the human RANTES promoter spanning from −220 to +55 nucleotides (nt), relative to the mRNA start site designated +1 was cloned into the luciferase reporter gene vector pGL2 (Promega, Madison, Wis.) and defined as pGL2-220. Site mutations of the RANTES ISRE in the context of pGL2-220 plasmid were introduced by PCR using the following upstream and downstream mutagenic primers (mutations in lower cases): […]
# Logarithmically growing A549 cells were transfected in triplicate in 60 mm petri dishes by DEAE-Dextran, as previously described (20). Cells were incubated in 2 ml of HEPES buffered Dulbecco's modified Eagle's medium (DMEM) (10 mM Hepes, pH 7.4) containing 20 μl of 60 mg/ml DEAE-Dextran (Amersham Pharmacia Biotec, Arlington Heights, Ill.) premixed with 6 μg of RANTES-pGL2 plasmids and 1 μg cytomegalovirus (CMV)-β galactosidase internal control plasmid. After 3 hours, media was removed and 0.5 ml of 10% (v/v) DMSO in phosphate buffered saline (PBS) was added to the cells for 2 minutes. Cells were washed with PBS and cultured overnight in 10% FBS/DMEM. The next morning, cells were infected with RSV and at 24 hours post-infection cells were lysed to measure independently luciferase and β-galactosidase reporter activity, as previously described (20). Luciferase was normalized to the internal control β-galactosidase activity. […]
# NF-κB = assay: RSV-induced NF-κB nuclear translocation and DNA-binding in A549 cells; type: cell-based, human; conditions: data not shown
# STAT-3 = assay: Western blot of phosphorylated and total nuclear STAT-3 in RSV-infected A549 cells; type: cell-based, human; conditions: nuclear proteins, 400 μM
# Experimental: (§2) Western Immunoblot. Nuclear proteins were prepared as previously described, fractionated by SDS-PAGE and transferred to PVDF membrane (20). Membranes were blocked with 5% albumin in TBS-Tween and incubated overnight with antibody recognizing the tyrosine phosphorylated form of STAT-1 and STAT-3 (Santa Cruz Biotech, Santa Cruz, Calif.). Membranes were stripped and reprobed with antibodies to STAT-1 and STAT-3 (Santa Cruz Biotech, Santa Cruz, Calif.). For secondary detection, a horseradish-coupled anti-rabbit or anti-mouse antibody was used (Santa Cruz Biotech, Santa Cruz, Calif.) in the enhanced chemiluminescence assay (Amersham Life Science, Arlington Heights, Ill.).
# STAT-1 = assay: Western blot of phosphorylated and total nuclear STAT-1 in RSV-infected A549 cells; type: cell-based, human; conditions: nuclear proteins, 400 μM
# Experimental: as §2
smiles,measurement,setting,value
"COc1ccc(O)c(C(C)(C)C)c1 [BHA, butylated hydroxyanisol]",RSV-induced IRF-7 protein synthesis,IRF-7,almost completely abolished
same,RSV-induced IRF-3 mobility shift,IRF-3,almost completely abolished
same,"effectiveness in reducing RSV-induced RANTES secretion, compared among the antioxidants",RANTES,most effective
same,RSV-induced RANTES production,"RANTES; 400 μM, 24 hours, ELISA",significantly reduced
same,levels of the housekeeping gene β-actin,β-actin,does not affect; also recorded: not systematically reduced
same,RSV-induced RANTES ISRE binding,RANTES ISRE,completely abolished
same,RSV-induced luciferase activity (RANTES promoter),human RANTES promoter,almost completely abolished
same,RSV-induced NF-κB nuclear translocation and DNA-binding,NF-κB,did not affect
same,RSV-induced STAT-3 nuclear translocation,STAT-3,completely inhibited
same,RSV-induced STAT-3 phosphorylation,STAT-3,completely abolished
same,RSV-induced STAT-1 phosphorylation,STAT-1,completely blocked
same,RSV-inducible nuclear STAT-1 form,STAT-1,disappears
same,nuclear STAT-1 form present in uninfected and infected cells,STAT-1,not affected

# Source: US6699459B2, “Methods of treating lung inflammation” (The Board of Regents of the University of Texas System, priority 2001, dated 2004)
